PMC12209146 (Cellular and Molecular Life Sciences: CMLS, 2025)
Like-named read-outs stand apart in the source and are kept apart here. No end group written: not given here.

Experiments:
zebrafish embryos = conditions: in vivo; cited from earlier work
TcdB [1] = molecular target: T1, TcdB (Clostridioides difficile, UniProt P18177); test: cell-based
Target sequence in this assay (P18177 2-2366 limits assumed): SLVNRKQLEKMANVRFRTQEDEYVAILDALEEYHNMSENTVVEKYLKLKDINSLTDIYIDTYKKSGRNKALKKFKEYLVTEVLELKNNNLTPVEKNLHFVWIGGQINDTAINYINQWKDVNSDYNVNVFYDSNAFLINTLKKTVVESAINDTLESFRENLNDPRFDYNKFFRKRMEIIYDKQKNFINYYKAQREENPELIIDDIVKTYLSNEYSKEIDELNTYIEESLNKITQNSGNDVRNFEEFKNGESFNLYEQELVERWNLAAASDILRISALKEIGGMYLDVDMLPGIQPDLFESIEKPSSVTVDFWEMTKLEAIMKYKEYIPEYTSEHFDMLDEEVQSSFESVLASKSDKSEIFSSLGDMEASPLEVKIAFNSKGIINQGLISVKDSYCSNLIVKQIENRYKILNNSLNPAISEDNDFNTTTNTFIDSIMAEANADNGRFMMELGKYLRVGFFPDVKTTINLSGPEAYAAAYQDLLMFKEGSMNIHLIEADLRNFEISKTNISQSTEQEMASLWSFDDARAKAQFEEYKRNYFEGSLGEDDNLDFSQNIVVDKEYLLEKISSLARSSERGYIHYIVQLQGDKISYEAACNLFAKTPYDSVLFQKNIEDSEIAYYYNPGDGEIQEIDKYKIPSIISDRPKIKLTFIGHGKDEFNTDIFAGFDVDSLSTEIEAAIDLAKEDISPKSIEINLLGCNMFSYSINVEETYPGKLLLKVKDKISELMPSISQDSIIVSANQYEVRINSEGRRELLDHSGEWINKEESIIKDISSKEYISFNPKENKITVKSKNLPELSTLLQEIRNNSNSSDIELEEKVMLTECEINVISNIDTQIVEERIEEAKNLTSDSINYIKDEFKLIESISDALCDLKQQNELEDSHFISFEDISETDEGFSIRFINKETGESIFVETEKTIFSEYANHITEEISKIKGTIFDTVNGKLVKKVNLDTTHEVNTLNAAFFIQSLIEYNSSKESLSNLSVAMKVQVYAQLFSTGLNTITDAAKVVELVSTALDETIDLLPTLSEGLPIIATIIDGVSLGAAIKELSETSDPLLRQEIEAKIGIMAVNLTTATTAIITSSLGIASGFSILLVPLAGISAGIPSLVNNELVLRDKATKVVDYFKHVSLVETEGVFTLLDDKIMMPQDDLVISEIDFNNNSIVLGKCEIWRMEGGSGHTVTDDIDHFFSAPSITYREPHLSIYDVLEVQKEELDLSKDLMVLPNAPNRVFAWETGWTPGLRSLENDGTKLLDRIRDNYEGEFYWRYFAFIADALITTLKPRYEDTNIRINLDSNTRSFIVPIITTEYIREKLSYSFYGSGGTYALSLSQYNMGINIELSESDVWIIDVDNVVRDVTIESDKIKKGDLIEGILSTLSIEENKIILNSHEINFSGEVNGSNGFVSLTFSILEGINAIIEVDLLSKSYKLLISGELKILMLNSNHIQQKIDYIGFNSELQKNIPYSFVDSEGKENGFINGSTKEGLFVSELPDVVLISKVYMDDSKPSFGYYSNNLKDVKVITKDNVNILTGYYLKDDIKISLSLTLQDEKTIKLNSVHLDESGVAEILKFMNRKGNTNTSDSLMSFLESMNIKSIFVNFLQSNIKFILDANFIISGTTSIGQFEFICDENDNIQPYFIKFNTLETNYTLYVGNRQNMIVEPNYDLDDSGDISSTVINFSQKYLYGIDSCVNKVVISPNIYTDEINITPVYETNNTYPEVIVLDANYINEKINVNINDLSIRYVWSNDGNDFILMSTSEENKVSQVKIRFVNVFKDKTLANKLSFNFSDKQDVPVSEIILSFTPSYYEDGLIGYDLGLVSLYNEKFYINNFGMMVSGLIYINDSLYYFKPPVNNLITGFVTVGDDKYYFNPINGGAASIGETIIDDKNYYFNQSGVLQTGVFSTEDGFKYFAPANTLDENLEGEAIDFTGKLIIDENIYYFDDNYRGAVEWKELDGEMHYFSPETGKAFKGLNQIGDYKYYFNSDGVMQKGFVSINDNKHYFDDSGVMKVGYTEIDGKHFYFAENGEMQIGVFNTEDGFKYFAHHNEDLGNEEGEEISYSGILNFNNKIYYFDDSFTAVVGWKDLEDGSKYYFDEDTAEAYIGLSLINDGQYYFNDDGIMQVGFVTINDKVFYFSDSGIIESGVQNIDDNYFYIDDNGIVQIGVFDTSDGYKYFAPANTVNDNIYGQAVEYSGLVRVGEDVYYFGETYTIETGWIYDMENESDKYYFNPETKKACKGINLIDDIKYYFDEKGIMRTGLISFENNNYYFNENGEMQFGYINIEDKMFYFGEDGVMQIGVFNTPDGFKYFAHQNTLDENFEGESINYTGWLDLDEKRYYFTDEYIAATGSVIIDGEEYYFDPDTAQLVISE

in vitro = in vitro ADME, human; conditions: 37 °C
Procedure: The half-life of Angie 5 in plasma was calculated according to a work by Freisem et al., with minor modifications. A sample (0.5 ml) of human plasma was spiked with 20 µM Angie 5 and incubated at 37 °C. Aliquots (50 µl) were separated at 0, 15, 30, 60, and 120 min, respectively, and mixed with 250 µl 0.1% TFA in acetonitrile at − 20 °C. The mixture was centrifuged at 13,000 rpm for 30 s, and 150 µl of the supernatant was mixed with 150 µl 20% acetic acid in ice. The samples were analyzed with an Axima Confidence MALDI-TOF MS (Shimadzu) in linear mode using exactly the same measurement conditions for all samples spotted on a 384-well plate. Wells were coated with 0.5 µl of 10 mg/ml CHCA previously dissolved in TFA/water/acetonitrile/2-propanol (2.5/47.5/25/25, v/v), and the solvent was allowed to evaporate. Then, each sample (0.5 µl), previously mixed with matrix (0.5 µl), was applied onto the dry pre-coated well, and the solvent was allowed to evaporate. Laser shots were automatically done following a regular circular raster of a diameter of 2000 μm and spacing of 200 μm on each well; 100 profiles were acquired per sample, and 20 shots were accumulated per profile. An accelerating voltage of 20 kV was applied to the ion source. […] The half-life was calculated using GraphPad Prism version 10.3.1 for Windows, GraphPad Software, Boston, Massachusetts USA, www.graphpad.com. […]

TcdB [2] = molecular target: T1, TcdB; conditions: 100 µM peptide, 200 pM TcdB, added simultaneously, FCS-free medium, 7 h, 37 °C; n = 9
Target sequence in this assay (P18177 2-2366 limits assumed): as above

TcdB [3] = molecular target: T1, TcdB; conditions: Angie peptides 100 µM, α-defensin-6 6 µM, TcdB 50 ng in 25 µl PBS, 30 min, 37 °C, supernatant/pellet immunoblot; n = 3-4
Procedure: For the precipitation analysis, TcdB (50 ng equals 2 ng/µl) and inhibitors, α-defensin-6 (6 µM) and Angie peptides or water (solvent control) were incubated for 30 min in a total volume of 25 µl PBS. Next, the samples were centrifuged for 20 min, 14,000 rpm at 4 °C for separation of supernatant and pellet fraction. […] TcdB was detected using an anti-TcdB antibody (1:1000, Anti-Clostridium difficile Toxin B antibody, Abcam, Cambridge, UK).

C. difficile = conditions: previously shown; cited from earlier work
Procedure: Here, initially higher concentrations of the Angie peptides were tested and inhibition zones around the Angie peptides and the positive control were measured (Supplementary Fig. 1).

KAINTFIHGNKISIKAI [Angie 1]
Toxicity for zebrafish embryos (zebrafish embryos): not toxic

KFINIFIHGNKRSIKAI [Angie 5]
IC50 (TcdB [1]): 46.3 µM
IC50 (TcdB [1]; IC50 of TcdB-mediated cell rounding, Vero cells, 10 pM TcdB, no preincubation, 3 h after addition, FCS-free medium, ± SEM 1.08 µM, four-parameter fit): 40.9 µM
K of one-phase decay curve in human plasma (in vitro; fit of signal area vs. time, human plasma, 20 µM, MALDI-TOF): 0.1274
half-life at 20 µM (in vitro; human plasma spiked with 20 µM, aliquots at 0, 15, 30, 60, 120 min, 0.1% TFA in acetonitrile, MALDI-TOF MS peak area, one-phase decay fit, n = 3 per time point): 5.44 min
Protection from TcdB-mediated cell rounding, CaCo-2 cells (TcdB [2]): protected

α-defensin-6: human peptide, positive control for precipitation of TcdB (PeptaNova)
Precipitate formation with TcdB (TcdB [3]): precipitate formation

KGINTFIHGNKRSIKAI [Angie 6]
Protection from TcdB-mediated cell rounding, CaCo-2 cells (TcdB [2]): did not inhibit

LL-37: antimicrobial peptide used as positive control in the radial diffusion assay (Anaspec) (LLGDFFRKSKEKIGKEFKRIVQRIKDFLRNLVPRTES; Antibacterial peptide LL-37; UniProt P49913 134-170, looked up)
Activity against C. difficile (C. difficile): activity against C. difficile

KDINTFIHGNKRSIKAI [reference Angie]
Protection from TcdB-mediated cell rounding, CaCo-2 cells (TcdB [2]): did not inhibit

KLINTFIHGNKRSIKAI [Angie 7]
Protection from TcdB-mediated cell rounding, CaCo-2 cells (TcdB [2]): did not inhibit
